Patent US20260287577A1, “APPLICATIONS OF HEPATOCYTE CO-CULTURE SYSTEM” (LifeNet Health, priority 2023, published 2026)
Like-named read-outs stand apart in the source and are kept apart here.

Legend:
Assay type in all cases: cell-based, human
LGALS3 (Galectin3) = test: cells; settings: for fold induction at 0.1 µM / fold induction at 1 µM: Homo sapiens
Experimental: (§1) Methods: The hepatic tri-culture system, including adult primary human hepatocytes (PHHs), endothelial cells and stromal cells, was cultured with and without primary KCs, at a ratio of 1 KC:4 PHH or 1 KC:2 PHH, in a glucocorticoid-containing or -free media. […] MTX or TGF-β1 or […] (LPS) cause hepatic injury. The injury leads to lipid accumulation, lipotoxicity and cytokines are produced. These activate the KCs and the liver sinusoidal endothelial cells (LSEC). Then stromal activation and gene expressions occur, leading to liver fibrosis.
(§2) Following exposure to methotrexate (MTX; 0.1 and 1 μM; Sigma-Aldrich, St. Louis, MO) or TGF-β1 (0.1 and 10 ng/ml; Miltenyi Biotec, Gaithersburg, MD) or vehicle (DMSO; 0.1% v/v), the expression of various genes known to have a role in fibrogenic responses (e.g., LGALS3, LOX, MMP1) was determined. MTX and TGF-β1 are known fibrogenic compounds Cell health was assessed by urea production and LDH release in the medium.
(§3) The experiments were done in a 96-well format according to the details shown below. […] The hepatocytes were from an individual adult lot. The Kupffer cells (KCs) were from an individual adult lot. The seeding density of the Kupffer cells to the hepatocytes was selected to mimic healthy or inflammatory physiological levels (1:4 or 1:2 ratio). The seeding of the KCs occurred on Day 1 of the culture (meaning 24 hours post-hepatocyte plating).
(§4) All hepatocyte plating was performed using TCPM with Dex (1 μM), as above. Four hours after hepatocyte plating, TCCM was added with and without Dex (half of the cultures with Dex, half without.) The media used were those as described above. The medium exchange process was to do 50% media changes following KC plating up until the compound addition.
(§5) Thawing and plating of the hepatocytes was done according to methods as known in the art. The next day (24 hours) after plating the cells, the KCs were added in TCCM with or without Dex (0.1 μM) at a 1:4 or 1:2 ratio to hepatocytes. The next day and subsequent days, 50% volume of medium was changed each day. Starting at day 5 of culture, the compounds tested were added in the 50% medium volume and allowed to go, unchanged, through Day 8 of culture (72 hr treatment); or to 120 hr treatment times. The treatment compounds were methotrexate (0.1 and 1.0 μM) and TGF-β1 (0.1 and 10 ng/ml).
(§6) The cell harvest and analytical endpoints were done as follows. Phase contrast images were captured each day. The media samples were collected for lactate dehydrogenase (LDH) assay at the end of each treatment period (i.e., 72 or 120 hours of treatment with each compound). The results were used to assess cell health. Cell lysates were harvested for gene expression analysis. 2 wells were combined per sample. The treatment samples were analyzed in triplicate. The following genes that have a role in fibrogenic response were observed. LGALS3 (Galectin3); LOX (lysyl oxidase), MMP1 (matrix Metalloproteinase 1); Housekeeping gene (β-actin). The images in FIGS. 44 and 45 are at 200×.

LOX (lysyl oxidase) = test: cells; settings: Homo sapiens
Experimental: as §1, §2, §3, §4, §5, §6

[1] = test system: MMP1 (matrix Metalloproteinase 1); test: cells; settings: Homo sapiens
Experimental: as §1, §2, §3, §4, §5, §6

[2] = test system: genes known to have a role in fibrogenic responses (e.g., LGALS3, LOX, MMP1); test: Fibrogenic response gene expression overall, Example 9; settings: DEX / no DEX, with / without KCs
Experimental: as §1, §2, §3, §4
Thawing and plating of the hepatocytes was done according to methods as known in the art. The next day (24 hours) after plating the cells, the KCs were added in TCCM with or without Dex (0.1 μM) at a 1:4 or 1:2 ratio to hepatocytes. […]
The cell harvest and analytical endpoints were done as follows. […] The treatment samples were analyzed in triplicate. […]

Compound: CN(Cc1cnc2nc(N)nc(N)c2n1)c1ccc(C(=O)N[C@@H](CCC(=O)O)C(=O)O)cc1 [MTX, methotrexate]
- fold induction at 0.1 µM (LGALS3 (Galectin3); 72 h, read-out: LGALS3 fold induction Mean, 72 hours, with Dex, No KC, MTX 0.1 μM): 1
- fold induction at 1 µM (LGALS3 (Galectin3); 72 h, read-out: LGALS3 fold induction Mean, 72 hours, with Dex, No KC, MTX 1 μM): 1.2
- fold induction at 0.1 µM (LGALS3 (Galectin3); 72 h, read-out: LGALS3 fold induction Mean, 72 hours, with Dex, with KCs, MTX 0.1 μM): 1
- fold induction at 1 µM (LGALS3 (Galectin3); 72 h, read-out: LGALS3 fold induction Mean, 72 hours, with Dex, with KCs, MTX 1 μM): 1.1
- fold induction at 0.1 µM (LGALS3 (Galectin3); 72 h, read-out: LGALS3 fold induction Mean, 72 hours, without Dex, No KC, MTX 0.1 μM): 1.2
- fold induction at 1 µM (LGALS3 (Galectin3); 72 h, read-out: LGALS3 fold induction Mean, 72 hours, without Dex, No KC, MTX 1 μM): 1.2
- fold induction at 0.1 µM (LGALS3 (Galectin3); 72 h, read-out: LGALS3 fold induction Mean, 72 hours, without Dex, with KCs, MTX 0.1 μM): 1.5
- fold induction at 1 µM (LGALS3 (Galectin3); 72 h, read-out: LGALS3 fold induction Mean, 72 hours, without Dex, with KCs, MTX 1 μM): 1.7
- fold induction at 0.1 µM (LGALS3 (Galectin3); 120 h, read-out: LGALS3 fold induction Mean, 120 hours, with Dex, No KC, MTX 0.1 μM): 1.2
- fold induction at 1 µM (LGALS3 (Galectin3); 120 h, read-out: LGALS3 fold induction Mean, 120 hours, with Dex, No KC, MTX 1 μM): 1.1
- fold induction at 0.1 µM (LGALS3 (Galectin3); 120 h, read-out: LGALS3 fold induction Mean, 120 hours, with Dex, with KCs, MTX 0.1 μM): 0.9
- fold induction at 1 µM (LGALS3 (Galectin3); 120 h, read-out: LGALS3 fold induction Mean, 120 hours, with Dex, with KCs, MTX 1 μM): 1.1
- fold induction at 0.1 µM (LGALS3 (Galectin3); 120 h, read-out: LGALS3 fold induction Mean, 120 hours, without Dex, No KC, MTX 0.1 μM): 1.1
- fold induction at 1 µM (LGALS3 (Galectin3); 120 h, read-out: LGALS3 fold induction Mean, 120 hours, without Dex, No KC, MTX 1 μM): 0.2
- fold induction at 0.1 µM (LGALS3 (Galectin3); 120 h, read-out: LGALS3 fold induction Mean, 120 hours, without Dex, with KCs, MTX 0.1 μM): 1.4
- fold induction at 1 µM (LGALS3 (Galectin3); 120 h, read-out: LGALS3 fold induction Mean, 120 hours, without Dex, with KCs, MTX 1 μM): 1.4
- LGALS3 gene expression (LGALS3 (Galectin3); MTX at both concentrations, presence of KCs, 120 hr versus 72 hr): slight decline
- fold induction at 0.1 µM (LOX (lysyl oxidase); 72 h, read-out: LOX fold induction Mean, 72 hours, with Dex, No KC, MTX 0.1 μM): 1.2
- fold induction at 1 µM (LOX (lysyl oxidase); 72 h, read-out: LOX fold induction Mean, 72 hours, with Dex, No KC, MTX 1 μM): 1.1
- fold induction at 0.1 µM (LOX (lysyl oxidase); 72 h, read-out: LOX fold induction Mean, 72 hours, with Dex, with KCs, MTX 0.1 μM): 1
- fold induction at 1 µM (LOX (lysyl oxidase); 72 h, read-out: LOX fold induction Mean, 72 hours, with Dex, with KCs, MTX 1 μM): 1
- fold induction at 0.1 µM (LOX (lysyl oxidase); 72 h, read-out: LOX fold induction Mean, 72 hours, without Dex, No KC, MTX 0.1 μM): 1.1
- fold induction at 1 µM (LOX (lysyl oxidase); 72 h, read-out: LOX fold induction Mean, 72 hours, without Dex, No KC, MTX 1 μM): 1.1
- fold induction at 0.1 µM (LOX (lysyl oxidase); 72 h, read-out: LOX fold induction Mean, 72 hours, without Dex, with KCs, MTX 0.1 μM): 1.3
- fold induction at 1 µM (LOX (lysyl oxidase); 72 h, read-out: LOX fold induction Mean, 72 hours, without Dex, with KCs, MTX 1 μM): 1.5
- fold induction at 1 µM (LOX (lysyl oxidase); 120 h, read-out: LOX fold induction Mean, 120 hours, with Dex, No KC, MTX 1 μM): 0.8
- fold induction at 0.1 µM (LOX (lysyl oxidase); 120 h, read-out: LOX fold induction Mean, 120 hours, with Dex, with KCs, MTX 0.1 μM): 1
- fold induction at 1 µM (LOX (lysyl oxidase); 120 h, read-out: LOX fold induction Mean, 120 hours, with Dex, with KCs, MTX 1 μM): 1.1
- fold induction at 0.1 µM (LOX (lysyl oxidase); 120 h, read-out: LOX fold induction Mean, 120 hours, without Dex, No KC, MTX 0.1 μM): 1
- fold induction at 1 µM (LOX (lysyl oxidase); 120 h, read-out: LOX fold induction Mean, 120 hours, without Dex, No KC, MTX 1 μM): 1.2
- fold induction at 0.1 µM (LOX (lysyl oxidase); 120 h, read-out: LOX fold induction Mean, 120 hours, without Dex, with KCs, MTX 0.1 μM): 1.4
- fold induction at 1 µM (LOX (lysyl oxidase); 120 h, read-out: LOX fold induction Mean, 120 hours, without Dex, with KCs, MTX 1 μM): 1.5
- fold induction at 1 µM (LOX (lysyl oxidase); read-out: LOX gene expression, 1 μM MTX, presence of KCs, 72 hr and 120 hr): ≥ 1.5
- fold induction at 0.1 µM ([1]; 72 h, read-out: MMP1 fold induction Mean, 72 hours, with Dex, No KC, MTX 0.1 μM): 1.2
- fold induction at 1 µM ([1]; 72 h, read-out: MMP1 fold induction Mean, 72 hours, with Dex, No KC, MTX 1 μM): 1.2
- fold induction at 0.1 µM ([1]; 72 h, read-out: MMP1 fold induction Mean, 72 hours, with Dex, with KCs, MTX 0.1 μM): 1.1
- fold induction at 1 µM ([1]; 72 h, read-out: MMP1 fold induction Mean, 72 hours, with Dex, with KCs, MTX 1 μM): 0.9
- fold induction at 0.1 µM ([1]; 72 h, read-out: MMP1 fold induction Mean, 72 hours, without Dex, No KC, MTX 0.1 μM): 0.9
- fold induction at 1 µM ([1]; 72 h, read-out: MMP1 fold induction Mean, 72 hours, without Dex, No KC, MTX 1 μM): 0.7
- fold induction at 0.1 µM ([1]; 72 h, read-out: MMP1 fold induction Mean, 72 hours, without Dex, with KCs, MTX 0.1 μM): 1.2
- fold induction at 1 µM ([1]; 72 h, read-out: MMP1 fold induction Mean, 72 hours, without Dex, with KCs, MTX 1 μM): 1.4
- fold induction at 1 µM ([1]; 72 h, read-out: MMP1 gene expression, 1 μM MTX, presence of KCs, 72 hr only): 1.4
- fold induction at 1 µM ([1]; 120 h, read-out: MMP1 fold induction Mean, 120 hours, with Dex, No KC, MTX 1 μM): 0.7
- fold induction at 0.1 µM ([1]; 120 h, read-out: MMP1 fold induction Mean, 120 hours, with Dex, with KCs, MTX 0.1 μM): 1
- fold induction at 1 µM ([1]; 120 h, read-out: MMP1 fold induction Mean, 120 hours, with Dex, with KCs, MTX 1 μM): 0.6
- fold induction at 0.1 µM ([1]; 120 h, read-out: MMP1 fold induction Mean, 120 hours, without Dex, No KC, MTX 0.1 μM): 0.7
- fold induction at 1 µM ([1]; 120 h, read-out: MMP1 fold induction Mean, 120 hours, without Dex, No KC, MTX 1 μM): 0.7
- fold induction at 0.1 µM ([1]; 120 h, read-out: MMP1 fold induction Mean, 120 hours, without Dex, with KCs, MTX 0.1 μM): 0.7
- fold induction at 1 µM ([1]; 120 h, read-out: MMP1 fold induction Mean, 120 hours, without Dex, with KCs, MTX 1 μM): 0.9
- culture conditions in which effects on fibrogenic genes were observed [2]: observed on the no DEX treated groups with KCs
